Assay results reported in BigSolDB 2.1.

CCCCOC(=O)c1ccc(O)cc1
solubility (mole fraction)
Conditions | 281.05 K | 291.05 K | 301.05 K | 311.05 K | 321.05 K
in acetonitrile | 0.275 | 0.449 | 0.61 | 0.753 | 0.857
in ethyl acetate | 0.424 | 0.501 | 0.591 | 0.688 | 0.781
